Patent US20220143024A1, “METHODS OF USING IMIPRIDONES” (Board of Regents, The University of Texas System, priority 2019, published 2022)
Where two headings read alike, the source gives them in different places.

How the values were obtained:
[1] = system: Z138 cells with tetracycline-inducible mutant ClpP (Y118A); test: Z138 xenograft with tetracycline-inducible Y118A mutant ClpP; assay type: in vivo; conditions: tetracycline 2 mg/mL in drinking water induces Y118A ClpP; untreated 40 days; p<0.0001; NSG mice
Description: (§1) Mice. For all the animal studies in the present study, the study protocols were approved by the Institutional Animal Care and Use Committee (IACUC) at the Princess Margaret Cancer Centre and MD Anderson Cancer Center. Two million Z138 cells transfected with the wild-type or D190A mutant CLPP-over-expressing vector and labeled with luciferase were injected to individual NSG mice (n=7 per treatment group, all female). After confirming engraftment measured by in vivo bioluminescence imaging on d 9 post-transplantation, ONC212 (50 mg/kg/d) or vehicle (water) is administered by oral gavage every other d until the mice got moribund. Tumor burden measured by luminescence was followed weekly until day 31. Independently, two million Z138 cells transfected with tetracycline-inducible Y118A mutant ClpP were labeled with luciferase and injected to individual NSG mice (n=10 per treatment group, all male). After confirming engraftment measured by in vivo bioluminescence imaging on day 5 post-transplantation, the mice were treated with or without tetracycline (2 mg/mL) in drinking water until moribund. One million OCI-AML2 cells were injected to individual SCID mice (n=10 per treatment group, all male). […]. Engraftment experiments using patient-derived xenograft AML cells were performed as previously reported (Ishizawa et al., 2016). […] The mice in each group were monitored for survival.

[2] = target: T1, human ClpP (recombinant WT ClpP) (Homo sapiens, UniProt Q16740); test: ClpP enzymatic assays with fluorogenic substrates (cell-free); assay type: biochemical; conditions: for EC50: without ClpX
T1 construct: SUMO fusion (pETSUMO2); made in house; host or cells: E. coli SG1146
Description: (§2) Hill coefficient was determined using Origin7, Pharmacology—Dose-response curve with log (compound concentration) as the independent variable.

[3] = target: T2, ClpP (Homo sapiens, UniProt Q16740); test: Gel-based α-casein degradation by ClpP; assay type: biochemical; conditions: without ClpX; 3 h; SDS-PAGE
T2 construct: SUMO fusion (pETSUMO2); made in house; host or cells: E. coli SG1146

[4] = target: T3, recombinant D190A ClpP (Homo sapiens, UniProt Q16740, D190A); test: ClpP enzymatic assays, D190A ClpP; assay type: biochemical; conditions: peptide (AC-WLA-AMC) or protein (FITC-casein) substrates
T3 construct: SUMO fusion (pETSUMO2); made in house; host or cells: E. coli SG1146
Description: as §2

[5] = system: ClpP interactors (SDHA, SDHB, NDUFA12) in OCI-AML3 cells; test: Immunoblot of respiratory chain complex subunits, OCI-AML3; assay type: cell-based; conditions: 24 hours, dose dependent
Description: Cells were lysed at a density of 1×10^6/50 μL (for AML cells) or 1×10^6/100 μL (for HCT116 cells) in protein lysis buffer (0.25 M Tris-HCl, 2% sodium dodecylsulfate, 4% β-mercaptoethanol, 10% glycerol, 0.02% bromophenol blue). Protein lysates for Oxphos cocktail antibodies were incubated for 30 min at room temperature, otherwise, at 95° C. for 5 min for denaturing (antibodies used are listed below). Immunoblot analysis was performed as reported previously (Ishizawa et al., 2016). Briefly, an equal amount of protein lysate was loaded onto a 10-12% SDS-PAGE gel (Bio-Rad), and quantitated using the Odyssey imaging system (LI-COR Biotechnology, Lincoln, Nebr.). Antibodies used: total OXPHOS rodent WB antibody cocktail, anti-SDHA, anti-SDHB, anti-NDUFA12, anti-ClpP, anti-ATF4, anti-eIF2α, anti-phospho-eIF2α (S51), anti-ClpP, anti-CQCRC2, anti-CS, anti-NDUFB8, anti-β-actin, and anti-GAPDH.

[6] = system: Z138 cells with WT ClpP overexpression; test: Z138 xenograft, WT ClpP overexpression; assay type: in vivo, mice; conditions: WT ClpP group
Description: as §1

[7] = system: Z138 cells with D190A ClpP overexpression; test: Z138 xenograft, D190A ClpP overexpression; assay type: in vivo, mice
Description: as §1

[8] = system: patient-derived xenograft AML cells (leukemia-initiating cells); test: Engraftment of ex vivo treated patient-derived xenograft AML cells; assay type: in vivo; conditions: cells treated ex vivo with 250 nM for 36 hours, injected into NSG mice; untreated 36 days; p<0.0001
Description: as §1

[9] = target: endogenous ClpP in OCI-AML2 cells (Homo sapiens, UniProt Q16740); conditions: 30 min, at concentrations associated with activation in enzymatic assays
[10] = system: primary AML patient samples; test: Annexin V assay in primary AML samples; conditions: 72 hours; incl. high-risk cytogenetics and molecular mutations
Description: Bulk AML cells from AML patients and peripheral blood stem cells from healthy G-CSF-treated stem cell donors were isolated by Ficoll density centrifugation and apheresis, respectively. Isolated cells were maintained in IMDM supplemented with 10% FBS, or Myelocult H5100 (Stemcell Technologies, Vancouver, BC), supplemented with 100 ng/mL SCF, 10 ng/mL FLT3-L, 20 ng/mL IL-7, 10 ng/mL IL-3, 20 ng/mL IL-6, 20 ng/mL G-CSF, 20 ng/mL GM-CSF. Cells were supplemented with 100 μg/ml penicillin, and 100 U/ml streptomycin, at 37° C. and 5% CO2 in humidified atmosphere.

[11] = system: ONC201-resistant (ONC-R) Z138 cells carrying D190A mutant ClpP; test: Sensitivity of ONC201-resistant Z138 cells; conditions: Annexin V assay; 72 hours
Description: (§3) After a 72-h period of incubation at 37° C., 10 μL of Alamar Blue was added to the culture medium and the mixture was incubated for an additional 2 h at 37° C. Cytotoxicity was measured using spectrophotometry of fluorescence at excitation 560 nm & emission 590 nm (SpectraMax M3, Molecular Devices, San Jose, Calif.). […] Annexin V and PI were stained after 72 h incubation. Annexin V- and PI-negative cells were counted as live cells.

[12] = system: CLPP+/+ T-REx HEK293 cells; test: Alamar blue viability, CLPP+/+ T-REx HEK293; conditions: CLPP+/+ (wild type) T-REx HEK293, 72 h
Description: as §3

[13] = system: CLPP−/− T-REx HEK293 cells; test: Alamar blue viability, CLPP−/− T-REx HEK293; conditions: 72 h
Description: as §3

[14] = system: OCI-AML2, OCI-AML3, TEX, Z138, HCT-116, HeLa, OC316 and SUM159 cells; test: Growth and viability of leukemia, lymphoma and solid tumor cell lines; conditions: tested cell lines; 72-hour exposure
Description: as §3

[15] = system: OCI-AML2 cells; test: Alamar blue viability assay, OCI-AML2; assay type: cell-based; conditions: 72-hour exposure, read-out: IC50, growth and viability
Description: […]. After a 72-h period of incubation at 37° C., 10 μL of Alamar Blue was added to the culture medium and the mixture was incubated for an additional 2 h at 37° C. Cytotoxicity was measured using spectrophotometry of fluorescence at excitation 560 nm & emission 590 nm (SpectraMax M3, Molecular Devices, San Jose, Calif.). For apoptosis analysis, annexin V and PI binding assays were performed to assess apoptosis as described previously (Ishizawa et al., 2016). […]. Annexin V and PI were stained after 72 h incubation. Annexin V- and PI-negative cells were counted as live cells.

[16] = substrate FITC-casein, read-out: EC50, ClpP cleavage of FITC-casein

T1 sequence (Q16740 57-277): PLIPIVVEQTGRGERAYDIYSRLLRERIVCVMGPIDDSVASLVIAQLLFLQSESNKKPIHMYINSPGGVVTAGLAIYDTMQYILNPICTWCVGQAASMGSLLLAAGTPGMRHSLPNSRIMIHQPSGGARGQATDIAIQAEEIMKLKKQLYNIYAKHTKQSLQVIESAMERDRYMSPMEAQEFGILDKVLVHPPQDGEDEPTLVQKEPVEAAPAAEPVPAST
T3 sequence (Q16740 57-277 D190A): as the sequence (Q16740 57-277) above, with D134A counted along it
Chain of endogenous ClpP in OCI-AML2 cells (Q16740 57-277): as the sequence (Q16740 57-277) above
T2 sequence (Q16740 57-277): as above

CN(C)[C@@H]1C(O)=C(C(N)=O)C(=O)[C@@]2(O)C(O)=C3C(=O)c4c(O)cccc4[C@@](C)(O)[C@H]3C[C@@H]12 [tetracycline]
median survival [1]: 48 days

O=C1C2=C(CCN(Cc3ccccc3)C2)N2CCN=C2N1Cc1ccc(C(F)(F)F)cc1 [ONC212]
Hill coefficient ([2]; FITC-casein data, positive cooperativity): 4.98±0.47 | mode of activation ([2]; pre-incubation of ClpP with compound (0-60 min) did not increase activation): reversible (non-covalent) | EC50 ([2]; read-out: EC50, ClpP cleavage of FAPHMALVPC (Clptide), substrate FAPHMALVPC (Clptide), read-out: EC50, ClpP cleavage of […] (Clptide)): 3370 nM | EC50 ([2]; substrate AC-WLA-AMC, read-out: EC50, ClpP cleavage of AC-WLA-AMC): 180 nM | EC50 ([2]; substrate Ac-Phe-hArg-Leu-ACC, read-out: EC50, ClpP cleavage of Ac-Phe-hArg-Leu-ACC): 370 nM | EC50 [2, 16]: 460 nM | degradation of α-casein by ClpP [3]: activated ClpP and induced cleavage of α-casein | activation of proteolytic activity of D190A ClpP [4]: could not activate | level of identified ClpP interactors [5]: reduced the level | tumor burden (luciferase, IVIS imaging) ([6]; 50 mg/kg every other day, oral gavage, NSG mice): significantly reduced | median survival ([6]; vehicle 49 days, p=0.008): 55 days | tumor burden (luciferase, IVIS imaging) ([7]; D190A ClpP group, 50 mg/kg every other day, oral gavage, NSG mice): no discernable anti-tumor activity | median survival ([7]; D190A mutant group, vehicle 53 days, p=0.40): 54 days | median survival [8]: 82 days | binding to endogenous ClpP in cells [9]: bound endogenous ClpP | apoptosis in primary AML patient samples [10]: induced apoptosis | sensitivity of ONC-R Z138 cells [11]: cross-resistant | growth and viability [12]: reduced the growth and viability | growth and viability [13]: resistant | IC50 values, growth and viability [14]: nanomolar range

Acyldepsipeptide 1 [ADEP1]
potency as ClpP activator (comparison) ([2]; ADEP1 versus ONC201 and ONC212): less potent | cleavage of non-ClpP substrate MCA-Pro-Leu-Gly-Pro-D-Lys (DNP)-OH ([2]; after activating ClpP): not cleaved | EC50 [2, 16]: 21300 nM | IC50 [15]: 50000 nM

CC[C@]1(O)C[C@H]2CN(CCc3c([nH]c4ccccc34)[C@@](C(=O)OC)(c3cc4c(cc3OC)N(C=O)[C@H]3[C@@](O)(C(=O)OC)[C@H](OC(C)=O)[C@]5(CC)C=CCN6CC[C@]43[C@@H]65)C2)C1 [Vincristine]
sensitivity of ONC-R Z138 cells [11]: retained similar sensitivity

COc1cccc2c1C(=O)c1c(O)c3c(c(O)c1C2=O)C[C@@](O)(C(=O)CO)C[C@@H]3O[C@H]1C[C@H](N)[C@H](O)[C@H](C)O1 [Adriamycin]
sensitivity of ONC-R Z138 cells [11]: retained similar sensitivity
